In PubChem BioAssay (NCI) one finds TGI and GI50 data, which are given here for 15 compounds.

The structures appear in SMILES notation.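 Tested at 5 concentrations; 48 h exposure; 96-well plates; endpoints linearly interpolated, else capped at highest concentration. The concentration for 50% growth inhibition is given as GI50. TGI is the concentration that stops growth completely.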 Some results are limits rather than exact numbers.

Holding throughout (experiment): NCI tumour cell line growth inhibition, 48 h
In assay [1] the test system is COLO 205 colon.
Assay [2] relates to HCT-116 colon.
The test system of assay [3] is K-562 leukemia.
The test system of assay [4] is NCI-H226 lung.
For assay [5], the system named is SF-295 CNS.
For assay [6], the system named is SF-539 CNS.
Assay [7] deals with UACC-257 melanoma.
Assay [8] has as its system UACC-62 melanoma.
Assay [9] has as its system MCF7 breast.
Assay [10] concerns CAKI-1 renal.

Consider `COc1cccc(-c2nccc3c(OCc4ccccc4)c(OC)c(OC)cc23)c1`, for which the TGI in assay [1], in assay [2], in [3], in assay [4], in assay [5] and in [6] was more than 100 µM throughout. Besides, the TGI in assay [7] and in assay [8] was more than 100 µM in each case.
Regarding `Cc1c2ccccc2c(C)n2c1nc1ccccc12`, the TGI is more than 100 µM in assay [2]; more than 100 µM in [3]; 13.3 µM in [9]; 37.8 µM in assay [4]; 25.3 µM in [5]; 18.6 µM in assay [6]. For the same compound, the TGI in [7] was 76.4 µM; in assay [8], 23.5 µM.
On to `COC(=O)NC(Cc1ccccc1)NC(C)=O` (stereo unspecified), for which the TGI in assay [10], in assay [1], in [2], in assay [3], in assay [9] and in assay [5] was more than 100 µM each time. Besides, the TGI in [6], in assay [7] and in assay [8] was more than 100 µM throughout.
Take `CN[C@@H](C)[C@@H](O)c1ccccc1`: the TGI in [10], in assay [1], in assay [2], in [3], in assay [9] and in assay [4] was more than 100 µM throughout. Also, the TGI in assay [5], in assay [6] and in assay [7] was more than 100 µM throughout.
For the compound `NC(=Nc1ccccc1)c1ccccc1N`, the TGI in assay [10], in assay [1], in assay [2], in assay [3], in assay [9] and in assay [4] was more than 100 µM throughout. The TGI in [5], in assay [7] and in assay [8] was more than 100 µM each time.
For the compound `Clc1ccc(C2CC(c3cccc(Nc4ccncc4)c3)=NN2c2cc(Cl)cc(Cl)c2)cc1` (stereo unspecified), the GI50 is 1.61 µM in assay [10]; 2.14 µM in assay [1]; 2.55 µM in assay [3]; 2.05 µM in assay [9]; 1.76 µM in [5]; 1.69 µM in assay [6]. Moreover, the GI50 in assay [7] was 2.12 µM; in assay [8], 1.77 µM. The TGI in assay [10] worked out at 3.13 µM; in assay [1], 4.62 µM; in [3] it was 6.12 µM; in assay [9], 4.73 µM; in assay [5], 3.23 µM; in assay [6], 3.2 µM. The TGI stood at 4.42 µM in [7] and 3.29 µM in [8].
`C[n+]1c2ccccc2c(/C=N\NS(=O)(=O)c2ccc(Cl)cc2)c2ccccc21`: the TGI in [10], in [2], in assay [3], in assay [4], in assay [5] and in assay [6] was more than 100 µM in each case. The TGI in assay [7] and in [8] was more than 100 µM each time.
In the case of `CC(C)(C)OC(=O)N1[C@@H]2Cc3ccc(N)cc3[C@@]1(C)c1ccccc12`, the TGI was more than 100 µM in assay [10]; 37.1 µM in assay [2]; 62.6 µM in assay [3]; more than 100 µM in [9]; more than 100 µM in assay [5]; 78.2 µM in [7]. The same compound had a TGI in assay [8] of 53.6 µM.
Take `CC12ON(P(=O)(c3ccccc3)c3ccccc3)C(C)(c3ccccc31)c1ccccc12`: the TGI in assay [10], in assay [1], in [2], in [3], in assay [4] and in assay [5] was more than 100 µM throughout. Further, the TGI in assay [6], in assay [7] and in assay [8] was more than 100 µM throughout.
Turning to `N[C@H](CCC(=O)NCP(=O)(O)O)C(=O)O`, the TGI in assay [1], in [2], in assay [3], in assay [9], in assay [5] and in [6] was more than 100 µM throughout. For the same compound, the TGI in assay [7] and in assay [8] was more than 100 µM throughout.
Take `CCN(CC)CCOc1ccc(C(O)(Cc2ccc(OC)cc2)c2ccccc2)cc1` (stereo unspecified): the TGI in [10] turned out to be 50.9 µM; in [1] it was 24.9 µM; in assay [2], 26.8 µM; in assay [3], 18.6 µM; in assay [4] it was 77.5 µM; in assay [5], 33.1 µM. Also, the TGI in assay [6] came to 25.1 µM; in [7] it was 30.3 µM; in [8], 31 µM.
`O=C1C2=C(SCCS2)C(=O)c2c(Sc3ccc(Cl)cc3)c(Sc3ccc(Cl)cc3)c(Sc3ccc(Cl)cc3)c(Sc3ccc(Cl)cc3)c21`: the TGI in [10], in [1], in assay [2], in assay [9], in [4] and in assay [5] was more than 100 µM each time. For the same compound, the values for the TGI in [7] and in [8] were more than 100 µM and 52.8 µM, respectively.
As for `COP(=O)(O)C(N)Cc1c[nH]c2ccccc12` (stereo unspecified), the TGI in assay [10], in [1], in [2], in assay [3], in assay [9] and in [4] was more than 100 µM in each case. Besides, the TGI in [5] and in [7] was more than 100 µM each time.
Take `CN(Cc1cnc2nc(N)nc(N)c2n1)c1ccc(C(=O)NC(CCC(=O)NC(CC(P(=O)(O)O)P(=O)(O)O)C(=O)O)C(=O)O)cc1` (stereo unspecified): the TGI in assay [1], in [2], in assay [9], in assay [4], in assay [5] and in assay [7] was more than 100 µM in each case. This compound also gave a TGI in [8] of more than 100 µM.
As to `CCC(=O)/C(=C\I)c1ccccc1`, the TGI in assay [1] is 3.59 µM; in assay [2] it was 3.3 µM; in [3] it was more than 100 µM; in assay [4] it was 56.7 µM; in assay [5], 33.4 µM; in assay [6], 34.3 µM. Further, the TGI in assay [7] was 16.7 µM; in assay [8], 9.77 µM.
